In US20080207669A1, “(S)-N-Stereoisomers of 7,8-Saturated-4,5-Epoxy-Morphinanium Analogs” (Progenics Pharmaceuticals, Inc., priority 2006, published 2008):

What was measured:
μ receptors = μ receptors (Homo sapiens, UniProt P35372); experiment: Opiate receptor radioligand binding, competition with diprenorphine, naltrexone control; settings: compared to naltrexone control; test concentration not given
Description: Opiate Receptor Binding of (S)-7,8-saturated-4,5α-epoxy-morphinaniums. Radioligand binding assays may be conducted to determine the binding specificity of an (S)-7,8-saturated-4,5-epoxy-morphinanium for μ-, κ-, and δ-opiate receptors using methods adapted from scientific literature (Simonin, F et al 1994, Mol. Pharmacol. 46:1015-1021; Maguire, P. et al 1992, Eur. J. Pharmacol. 213:219-225; Simonin, F. et al PNAS USA 92(15):1431-1437; Wang, J B 1994, FEBS Lett 338:217-222). For example, a membrane may be associated with human opioid receptor material. Diprenorphine which has an affinity for all […] opioid receptors, can be used as a competitive challenge to the test compound. Membranes can then be separated, and the binding of the test compounds to the receptor material can be determined by scintillation counting. A control, such as naltrexone, can be used to determine relative binding affinity.

[1] = target: T1, μ-opioid receptors in the guinea pig ileum (Cavia porcellus, UniProt A0ACM8Q262); experiment: Field-stimulated guinea pig ileum, evaluation of agonist activity; settings: for activation at 100 µM: 1.0E-04 M; for activation at 10 µM: 1.0E-05 M; for activation at 0.1 µM: 1.0E-07 M; for activation at 0.01 µM: 1.0E-08 M; for activation at 30 µM: 3.0E-05 M; for activation at 3 µM: 3.0E-06 M; for activation at 0.3 µM: 3.0E-07 M; for activation at 0.03 µM: 3.0E-08 M; for Response to compound + Naloxone, percent of the control response to DAMGO: compound 1.0E-04 M + Naloxone 1.0E-07 M; for activation at 1 µM: 1.0E-06 M
Protocol: (§1) In Vitro Pharmacology of (S)-7,8-saturated-4,5α-epoxy-morphinaniums on μ receptor. Mμ-receptor agonist/antagonist activity may be adjudged by use of field-stimulated guinea pig ileum by methods known in the art. For example, segments of guinea pig terminal ileum may be suspended in 20-ml organ baths filled with an oxygenated (95% O2 and 5% CO2) and pre-warmed (37° C.) physiological salt solution of the following composition (in mM): NaCl 118.0, KCl 4.7, MgSO4 1.2, CaCl2 2.5, KH2PO4 1.2, NaHCO3 25.0 and glucose 11.0 (pH 7.4). Additional experimental conditions that may be followed are described in Hutchinson et al. (1975) Brit. J. Pharmacol., 55:541-546.
(§2) Indomethacin (1 μM), nor-binaltorphimine (0.01 μM), methysergide (1 μM), ondansetron (10 μM) and GR113808 (0.1 μM) may be also present throughout an experiment to prevent prostanoid release and to block the k-opioid, 5-HT2, 5-HT3 and 5-HT4 receptors, respectively. The tissues in such tests are typically connected to force transducers for isometric tension recordings. The tissue may be stretched to a resting tension, for example, of 1 g then allowed to equilibrate, for example, about 60 min during which time they may be washed repeatedly and the tension readjusted. Electrical stimulation with pulses of minimal intensity to trigger maximal contractions and a short duration, for example, 1 ms duration, delivered by a constant current stimulator at a frequency such a 0.1 Hz.
Exemplar Test for Agonist Activity. The tissues may be exposed to a submaximal concentration of the reference agonist DAMGO (0.1 μM) to verify responsiveness and to obtain a control response. Following extensive washings and recovery of the control twitch contractions, the tissues may be exposed to increasing concentrations of the (S)-7,8-saturated-4,5-epoxy-morphinanium or the same agonist. The different concentrations may be added cumulatively and each left in contact with the tissues until a stable response is obtained or for a maximum of 15 min.

[2] = target: T1, μ-opioid receptors in the guinea pig ileum; experiment: Field-stimulated guinea pig ileum, evaluation of antagonist activity against DAMGO; settings: for remaining activity at 100 µM / remaining activity at 10 µM / remaining activity at 1 µM / remaining activity at 0.1 µM / remaining activity at 0.01 µM / remaining activity at 30 µM / remaining activity at 3 µM / remaining activity at 0.3 µM / remaining activity at 0.03 µM: guinea pig, mean, n=2, read-out: Response to DAMGO (1.0E-07 M) in the presence of the compound, percent of the control response to DAMGO; for remaining activity at 100 µM: compound 1.0E-04 M; for remaining activity at 10 µM: compound 1.0E-05 M; for remaining activity at 1 µM: compound 1.0E-06 M; for remaining activity at 0.1 µM: compound 1.0E-07 M; for remaining activity at 0.01 µM: compound 1.0E-08 M; for remaining activity at 30 µM: compound 3.0E-05 M; for remaining activity at 3 µM: compound 3.0E-06 M; for remaining activity at 0.3 µM: compound 3.0E-07 M; for remaining activity at 0.03 µM: compound 3.0E-08 M; for Antagonist activity IC50 value: inhibition of the response to DAMGO, guinea pig ileum
Protocol: as §1, §2
Exemplary Test for Antagonist Activity. The tissues may be exposed to a submaximal concentration of the reference agonist DAMGO (0.1 μM) to obtain a control response. […] Each concentration may be left in contact with the tissues until a stable response is obtained or for a maximum time, such as 15 min. The maximum change in the amplitude of the electrically-evoked twitch contractions induced by each compound concentration may be measured. […] The EC50 value (concentration producing a half-maximum response) or IC50 value (concentration causing a half-maximum inhibition of the response to DAMGO) may be determined by linear regression analysis of the concentration-response curves. Inhibition of the DAMGO-induced response by the (S)-7,8-saturated-4,5-epoxy-morphinanium may indicate an antagonist activity at the μ receptors.

[3] = mean, n=2, read-out: Response to compound (decrease in twitch contraction amplitude), percent of the control response to DAMGO

T1 sequence (A0ACM8Q262 1-400): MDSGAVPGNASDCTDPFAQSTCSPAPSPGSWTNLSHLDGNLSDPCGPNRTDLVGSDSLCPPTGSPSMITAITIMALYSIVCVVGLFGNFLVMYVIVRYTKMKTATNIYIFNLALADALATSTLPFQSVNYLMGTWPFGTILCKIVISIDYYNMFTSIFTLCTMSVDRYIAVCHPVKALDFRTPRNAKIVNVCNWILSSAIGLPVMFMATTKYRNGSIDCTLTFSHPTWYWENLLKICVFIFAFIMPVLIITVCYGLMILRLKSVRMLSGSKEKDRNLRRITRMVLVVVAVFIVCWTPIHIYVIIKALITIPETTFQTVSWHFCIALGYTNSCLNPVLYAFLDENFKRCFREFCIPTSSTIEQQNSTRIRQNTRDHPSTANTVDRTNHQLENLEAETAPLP
Sequence of μ receptors (P35372 whole entry): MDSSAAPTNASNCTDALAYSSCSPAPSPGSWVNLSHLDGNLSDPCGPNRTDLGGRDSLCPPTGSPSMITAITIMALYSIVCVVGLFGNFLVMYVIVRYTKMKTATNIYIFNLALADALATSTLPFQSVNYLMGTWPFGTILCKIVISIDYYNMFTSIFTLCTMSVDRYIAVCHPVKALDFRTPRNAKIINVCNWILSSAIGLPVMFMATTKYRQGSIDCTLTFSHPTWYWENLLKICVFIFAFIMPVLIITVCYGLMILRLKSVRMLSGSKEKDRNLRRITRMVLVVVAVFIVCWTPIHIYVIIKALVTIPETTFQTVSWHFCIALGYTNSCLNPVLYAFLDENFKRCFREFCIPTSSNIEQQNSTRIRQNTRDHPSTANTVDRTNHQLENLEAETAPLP

## CC(C)=CC[N+]1(C)CC[C@]23c4c5ccc(O)c4O[C@H]2C(=O)CC[C@@]3(O)[C@H]1C5.[I-] (stereo partly drawn) [(S)-17-(3,3-dimethylallyl)-4,5α-epoxy-3,14-di-hydroxy-17-methyl-6-oxomorphinanium iodide]
μ receptors
  inhibition of control specific binding at the μ receptor: 65%

## C=CC[N+]1(CC2CC2)CC[C@]23c4c5ccc(O)c4O[C@H]2C(=O)CC[C@@]3(O)[C@H]1C5 (stereo partly drawn) [(S)-17-Allyl-17-cyclopropylmethyl-4,5α-epoxy-3,14-di-hydroxy-6-oxomorphinanium Iodide]
μ receptors
  inhibition of control specific binding at the μ receptor: 68%

## CC(C)=CC[N+]1(C)CC[C@]23c4c5ccc(O)c4O[C@H]2C(=O)CC[C@@]3(O)[C@H]1C5.[I-] (stereo partly drawn) [(S)-DMAM, (S)-17-(3,3-dimethylallyl)-4,5α-epoxy-3,14-di-hydroxy-17-methyl-6-oxomorphinanium iodide]
[1]; [3]
  activation at 100 µM: 101%
  activation at 10 µM: 93%
  activation at 0.1 µM: 8%
  activation at 0.01 µM: 0%
  activation at 30 µM: 99%
  activation at 3 µM: 77%
  activation at 0.3 µM: 19%
  activation at 0.03 µM: 0%
[1]; mean, n=2
  Response to compound + Naloxone, percent of the control response to DAMGO: 77%
[1]; read-out: Agonist activity EC50 value, concentration producing a half-maximum response, guinea pig ileum
  EC50: 1300 nM
[2]
  remaining activity at 100 µM: 113%
  remaining activity at 10 µM: 110%
  remaining activity at 1 µM: 101%
  remaining activity at 0.1 µM: 100%
  remaining activity at 0.01 µM: 100%
  remaining activity at 30 µM: 113%
  remaining activity at 3 µM: 105%
  remaining activity at 0.3 µM: 100%
  remaining activity at 0.03 µM: 100%
  Antagonist activity IC50 value: No antagonist activity

## C[N+]1(CC#Cc2ccccc2)CC[C@]23c4c5ccc(O)c4O[C@H]2C(=O)CC[C@@]3(O)[C@H]1C5 (stereo partly drawn) [(S)-PM]
μ receptors
  inhibition of control specific binding at the μ receptor: 80%
[1]; [3]
  activation at 100 µM: 89%
  activation at 10 µM: 53%
  activation at 1 µM: 25%
  activation at 0.1 µM: 6%
  activation at 0.01 µM: 0%
  activation at 30 µM: 71%
  activation at 3 µM: 38%
  activation at 0.3 µM: 12%
  activation at 0.03 µM: 0%
[1]; mean, n=2
  Response to compound + Naloxone, percent of the control response to DAMGO: 30%
[2]
  remaining activity at 100 µM: 110%
  remaining activity at 10 µM: 100%
  remaining activity at 1 µM: 100%
  remaining activity at 0.1 µM: 100%
  remaining activity at 0.01 µM: 100%
  remaining activity at 30 µM: 100%
  remaining activity at 3 µM: 100%
  remaining activity at 0.3 µM: 100%
  remaining activity at 0.03 µM: 100%
  Antagonist activity IC50 value: No antagonist activity

## C[C@@H](NC(=O)[C@@H](N)Cc1ccc(O)cc1)C(=O)NCC(=O)N(C)[C@@H](Cc1ccccc1)C(=O)NCCO [DAMGO, reference compound]
[1]; [3]
  activation at 1 µM: 103%
  activation at 0.1 µM: 96%
  activation at 0.01 µM: 57%
[1]; 1.0E-09 M, mean, n=2, read-out: Response to compound (decrease in twitch contraction amplitude), percent of the control response to DAMGO
  activation at 0.001 µM: 9%
[1]; highest DAMGO concentration + Naloxone 1.0E-07 M, mean, n=2
  Response to DAMGO + Naloxone, percent of the control response to DAMGO: 4%
